pIC50: −log10 of the molar value. Where two headings read alike, the source gives them in different places.
What was measured:
[1] = biological target: T1, cloned hERG Potassium Channels expressed in human embryonic kidney cells (Homo sapiens, UniProt Q12809); test: hERG assay; type: cell-based
T1 construct: expressed in transfected cells; host or cells: human embryonic kidney cells

[2] = tested on: Beagle dogs; test: Single-dose subcutaneous toxicity in dogs; type: in vivo
From the text: One group of one male and one female Beagle dogs received single escalating subcutaneous doses of Rx100.Lysine at 10 and 1 (female)/1.52 (male) mg/kg. […] Parameters evaluated included clinical signs, body weight, and gross pathology. The male and female dog survived until scheduled necropsy on Day 15. Administration of Rx100 had no effect on body weight or general health of the animals. Noteworthy clinical observations were confined to skin and behavior effects. Both animals scratched at the dose site, likely contributing to observations of redness at the dose site. Swelling and a thickened/raised area were also observed during the observation period. Clinical observations were sufficient to warrant the injection of diphenhydramine. […] Following injection of the L-lysine component of the formulation at an independent site, redness, scratching, or swelling was not seen.

[3] = Single subcutaneous dose pharmacokinetics in irradiated and unirradiated mice; type: in vivo, C57BL/6 mice; settings: single SC dose 1 mg/kg, 1 mg/kg; for AUC(0-inf): read-out: AUCINF_obs
From the text: We performed a randomized, open-label, single-dose, four-arm, subcutaneously-administered, study of the pharmacokinetics of Rx100.Ammonia and Rx100.Lysine in irradiated and unirradiated C57BL/6 mice to evaluate the effect of salt form and irradiation on extravascular pharmacokinetics. The purpose of this study was to evaluate the pharmacokinetic parameters for two salt forms of Rx100 (Lysine and Ammonia) in healthy and PB irradiated (IR) mice when administered as a single dose. Each animal received a 1 mg/kg dose of Rx100.Lysine or Rx100.Ammonia. The animals receiving Rx100.Lysine or Rx100.Ammonia after irradiation were dosed 26±2 hours after irradiation and sampling times are relative to the time of test article dosing.
More specifically, randomized, acclimated, C57BL/6 mice were administered Rx100.Lysine or Rx100.Ammonia (10 mM L-histidine in sterile water for injection, or 1% ethanol, 2% propylene glycol in PBS, respectively) as a single dose as indicated in Table 25.
Blood was collected from 4 male and 4 female mice via cardiac puncture at pre-defined time points relative to test article dosing (0.5, 1, 2, 4, 6, 8, 12, 18, 24, and 48 hours) and collected into micro plasma separator vials (BD Microtainer®) containing lithium heparin. Blood was maintained on ice until centrifugation and subsequent processing. Blood draws were a terminal procedure. Plasma was frozen at −80° C. until submitted for bioanalysis. Sample collection was completed in September 2012. Samples were transferred to Covance in December 2013, and sample analysis was complete in the first quarter of 2014.
A total of 160 male and 160 female C57BL/6 10-12 week old mice were used in this study. Animals were randomized with weight stratification into treatment groups and given a second ear tag. Animals were acclimated for 16-19 days (See below Table 26). Prior to irradiation or dosing (in non-irradiated groups), animals were weighed a second time which was the basis of the animal dose delivered.
TLDs were used for dosimetry and confirmation of the delivered dose. TLDs were analyzed by MD Anderson and have a +/−5% accuracy. A total of 19 dosimeters were used with a mean measured dose of 15.33±0.166 Gy.
Analysis was performed using qualified and validated Phoenix® WinNonlin® Software. The final data provided was imported into Phoenix® WinNonlin®. All data presented in the tables and figures within the results section of this report were generated using the validated Phoenix® WinNonlin® Software.

[4] = tested on: bone marrow cells (micronucleated PCEs); test: In vivo rat bone marrow micronucleus assay; parameters: species or system Sprague-Dawley rats
Method: A GLP-compliant rat micronucleus study was performed using male Sprague-Dawley rats (n=5/group) administered single subcutaneous doses of Rx100.lysine at 0 (0.5% sterile water for injection with 10 mM L-histidine), 125, 250, and […] (doses corrected for purity were 113, 225 and 452 mg/kg). One additional group received the positive control material (cyclophosphamide). Five animals per group were sacrificed 24 hours postdose; five animals from the vehicle and high dose group were sacrificed 48 hours postdose. Following sacrifice, bone marrow cells were collected from the femur. 2000 PCEs per animal were analyzed for the frequency of micronuclei. […] The materials were also shown to be homogenous (relative standard deviation [RSD] of 0.7 to 0.9%). […] Thus, Rx100.Lysine was considered to be negative in the micronucleus assay.

[5] = + IR (irradiated mice), whole group (not split by gender), listed as Rx100.Lysine
[6] = healthy mice, F, listed as Rx100.Lysine
[7] = healthy mice, M, listed as Rx100.Lysine
[8] = healthy mice, whole group (not split by gender), listed as Rx100.Lysine
[9] = irradiated mice (15.6 Gy, dosed 26 ± 2 h after), F, listed as Rx100.Lysine
[10] = irradiated mice (15.6 Gy, dosed 26 ± 2 h after), M, listed as Rx100.Lysine
[11] = 125 mg/kg single subcutaneous dose, harvest 24 hour
[12] = 250 mg/kg single subcutaneous dose, harvest 24 hour

T1 sequence (Q12809 whole entry): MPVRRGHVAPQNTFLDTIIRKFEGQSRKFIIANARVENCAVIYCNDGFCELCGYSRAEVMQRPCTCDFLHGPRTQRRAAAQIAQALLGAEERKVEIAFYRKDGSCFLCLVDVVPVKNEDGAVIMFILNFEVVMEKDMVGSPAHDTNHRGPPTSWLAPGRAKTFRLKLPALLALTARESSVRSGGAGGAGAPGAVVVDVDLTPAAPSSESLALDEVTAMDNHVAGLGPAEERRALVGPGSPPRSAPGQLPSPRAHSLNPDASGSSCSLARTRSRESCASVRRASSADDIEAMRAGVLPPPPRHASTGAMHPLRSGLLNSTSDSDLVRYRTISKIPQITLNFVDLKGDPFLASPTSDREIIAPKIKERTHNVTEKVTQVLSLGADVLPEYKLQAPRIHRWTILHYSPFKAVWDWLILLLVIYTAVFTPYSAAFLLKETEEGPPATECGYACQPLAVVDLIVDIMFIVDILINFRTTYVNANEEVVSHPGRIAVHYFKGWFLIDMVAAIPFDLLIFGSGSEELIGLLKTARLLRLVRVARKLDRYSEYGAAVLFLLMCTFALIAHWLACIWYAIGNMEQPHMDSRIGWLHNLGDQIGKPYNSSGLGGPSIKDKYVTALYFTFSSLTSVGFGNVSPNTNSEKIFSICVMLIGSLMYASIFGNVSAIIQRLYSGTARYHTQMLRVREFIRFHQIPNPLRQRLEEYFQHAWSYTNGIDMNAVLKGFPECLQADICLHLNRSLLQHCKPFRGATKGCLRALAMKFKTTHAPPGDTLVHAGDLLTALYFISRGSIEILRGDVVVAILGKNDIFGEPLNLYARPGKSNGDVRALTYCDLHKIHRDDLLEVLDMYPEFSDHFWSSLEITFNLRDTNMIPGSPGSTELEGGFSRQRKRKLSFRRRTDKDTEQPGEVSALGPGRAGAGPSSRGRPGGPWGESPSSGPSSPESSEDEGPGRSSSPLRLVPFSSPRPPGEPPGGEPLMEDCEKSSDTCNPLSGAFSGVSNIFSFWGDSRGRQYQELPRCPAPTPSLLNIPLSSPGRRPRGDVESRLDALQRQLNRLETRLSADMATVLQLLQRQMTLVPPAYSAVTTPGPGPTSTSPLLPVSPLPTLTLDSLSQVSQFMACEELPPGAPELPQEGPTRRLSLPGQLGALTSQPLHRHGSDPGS

For `CCCCCCCC/C=C\CCCCCCCCOP(O)(O)=S` [Rx100, (Z)—O-octadec-9-en-1-yl O,O-dihydrogen phosphorothioate], the pIC50 [1] was roughly 3.22 and the “hERG IC50 relative to anticipated therapeutic concentrations” value [1] was 100 fold.
With `CCCCCCCC/C=C\CCCCCCCCOP(O)(O)=S` [Rx100.L-Lysine, (Z)—O-octadec-9-en-1-yl O,O-dihydrogen phosphorothioate] the “clinical observations at dose sites” value ([2]; 1 mg/kg dose) was “persistent scratching and swelling at dose sites”, the “macroscopic and microscopic findings at dose sites” value ([2]; 1 mg/kg dose) was “No remarkable findings” and the “tolerability of subcutaneous injection” value ([2]; Rx100 formulation, beagle dogs) was “not tolerated”. For the same compound, the “microscopic examination of injection site” value ([2]; injection site A (10 mg/kg), both animals) was “chronic-active inflammation with necrosis and vascular thrombus formation”, the “effect on body weight or general health” value ([2]; single escalating SC doses 10 and 1/1.52 mg/kg) was “no effect” and the Cmax ([3]; IR males, listed as Rx100.Lysine) was 299 ng/mL. The AUC(0-inf) ([3]; both sexes, C57BL/6, mouse, plasma, sc, + IR (irradiated mice), whole group (not split by gender)) was 1210 ng·h/mL, the Cmax ([3]; both sexes, C57BL/6, mouse, plasma, sc, + IR (irradiated mice), whole group (not split by gender), read-out: Cmax) was 323 ng/mL and the AUC(0-inf) ([3]; both sexes, C57BL/6, mouse, plasma, sc, healthy mice, whole group (not split by gender)) was 1660 ng·h/mL. The Cmax ([3]; both sexes, C57BL/6, mouse, plasma, sc, healthy mice, whole group (not split by gender), read-out: Cmax) was 512 ng/mL, the AUC ([3]; female, C57BL/6, mouse, plasma, sc, IR females, read-out: AUC) was 1240 ng·h/mL and the Cmax ([3]; female, C57BL/6, mouse, plasma, sc, IR females, read-out: Cmax) was 355 ng/mL. It also gave a Cmax ([3]; female, C57BL/6, mouse, plasma, sc, healthy females, read-out: Cmax) of 455 ng/mL, an AUC ([3]; female, C57BL/6, mouse, plasma, sc, healthy females, read-out: exposure (AUC)) of 1590 ng·h/mL and an AUC(0-inf) ([3]; female, C57BL/6, mouse, plasma, sc, healthy mice, F) of 1590 ng·h/mL. It also gave a Cmax ([3]; female, C57BL/6, mouse, plasma, sc, healthy mice, F, read-out: Cmax) of 454 ng/mL, an AUC(0-inf) ([3]; female, C57BL/6, mouse, plasma, sc, irradiated mice (15.6 Gy, dosed 26 ± 2 h after), F) of 1240 ng·h/mL and a Cmax ([3]; female, C57BL/6, mouse, plasma, sc, irradiated mice (15.6 Gy, dosed 26 ± 2 h after), F, read-out: Cmax) of 355 ng/mL. The AUC ([3]; male, C57BL/6, mouse, plasma, sc, IR males, read-out: AUC) was 1170 ng·h/mL, the AUC ([3]; male, C57BL/6, mouse, plasma, sc, healthy males, read-out: AUC) was 1750 ng·h/mL and the Cmax ([3]; male, C57BL/6, mouse, plasma, sc, healthy males, read-out: Cmax) was 570 ng/mL. The AUC(0-inf) ([3]; male, C57BL/6, mouse, plasma, sc, healthy mice, M) was 1750 ng·h/mL, the Cmax ([3]; male, C57BL/6, mouse, plasma, sc, healthy mice, M, read-out: Cmax) was 570 ng/mL and the AUC(0-inf) ([3]; male, C57BL/6, mouse, plasma, sc, irradiated mice (15.6 Gy, dosed 26 ± 2 h after), M) was 1170 ng·h/mL. For the same compound, the CLss_F [3, 5] was 13.822 mL/min/kg, the HL_Lambda_z [3, 5] was 1.44 h and the Vz_F [3, 5] was 1.72242 L/kg. The CLss_F [3, 6] was 10.462 mL/min/kg, the HL_Lambda_z [3, 6] was 1.84 h and the Vz_F [3, 6] was 1.66432 L/kg. The CLss_F [3, 7] was 9.5183 mL/min/kg, the HL_Lambda_z [3, 7] was 1.91 h and the Vz_F [3, 7] was 1.57087 L/kg. It also gave a CLss_F [3, 8] of 10.032 mL/min/kg, an HL_Lambda_z [3, 8] of 1.16 h and a Vz_F [3, 8] of 1.00622 L/kg. For the same compound, the CLss_F [3, 9] was 13.466 mL/min/kg, the HL_Lambda_z [3, 9] was 1.87 h and the Vz_F [3, 9] was 2.17384 L/kg. The CLss_F [3, 10] was 14.264 mL/min/kg, the Cmax [3, 10] was 298.75 ng/mL and the HL_Lambda_z [3, 10] was 1.32 h. The Vz_F [3, 10] was 1.62547 L/kg, the “Mean % MNPC (±SD) Male” value [4, 11] was 0.04% and the “Mean Ratio PCE:NCE (±SD) Male” value [4, 11] was 0.55. For the same compound, the “Mean % MNPC (±SD) Male” value [4, 12] was 0.07%, the “Mean Ratio PCE:NCE (±SD) Male” value [4, 12] was 0.59 and the “Mean Ratio PCE:NCE (±SD) Male” value ([4]; 500 mg/kg single subcutaneous dose, harvest 48 hour) was 0.36. The “Toxic/Cytotoxic Effects” value ([4]; all doses of the test article, statistically significant decreases in the PCE:NCE ratios) was “Toxic/Cytotoxic Effects: Rx100.Lysine was cytotoxic to the bone marrow (i.e., statistically significant decreases in the PCE:NCE ratios)”, the “micronucleated PCEs” value ([4]; any dose, 24 hour point, single SC dose) was “no increase in micronucleated PCEs” and the clinical signs ([4]; high dose animals at 48 hours postdose) was “hunched posture, hypoactivity and irregular respiration”. The “micronucleated PCEs” value ([4]; high dose animals, 48-hour time point, not considered biologically relevant) was “statistically significant increase” and the “micronucleus assay, overall result” value ([4]; rat, in vivo) was “negative”.
